Reference: PMC5748751, “Study of Structure and Permeability Relationship of Flavonoids in Caco-2 Cells” (Nutrients, 2017)
Read-outs that look alike come from different tables or passages of the source. Marks after values point to notes of the source that are not given here.

Key:
Caco-2 cell monolayer = assay: Cellular accumulation (CA) of flavonoids in Caco-2 cell monolayer; settings: for Ratioc (ratio of CA B to A to CA A to B): Caco-2 monolayer; for CA A to B: accumulated in cell monolayer after transport apical to basolateral; for CA A to B / CA B to A: 40 μM, 1 h, normalized to cellular protein, mean ± SD, n = 3; for CA B to A: accumulated in cell monolayer after transport basolateral to apical; for CA: both sides (CA A to B and CA B to A)
[1] = Stability of flavonoids in D-Hank's buffer relative to methanol; format: physicochemical; settings: 20 μM flavonoid, HPLC peak area in D-Hank's / peak area in methanol × 100%
Protocol: The relative stability was expressed as the relative appearance of flavonoids in different solvents. Each flavonoid (20 μM) was dissolved in two different solvents, D-Hank’s and methanol. […] Relative concentration in D-Hank’s (%) = Peak area in D-Hank’s/Peak area in methanol × 100%(3)

[2] = Permeability (bidirectional transport) of flavonoids in Caco-2 cell monolayers; format: in vitro ADME; settings: human; for Papp A→B at 60 min, 40 μM: Caco-2, apical to basolateral; for Papp A→B at 60 min, 40 μM / Papp B→A at 60 min, 40 μM: incubation 60 min, 37 °C, D-Hank's pH 7.4, mean ± SD, n = 3–6; for Papp B→A at 60 min, 40 μM: Caco-2, basolateral to apical; for Papp at 1 h, 40 μM: Caco-2 monolayer; for efflux ratio at 60 min, 40 μM: pH 7.4, Caco-2 monolayer, read-out: Ratiop (ratio of Papp B to A to Papp A to B)
Protocol: Caco-2 cells were cultured in MEM supplemented with 10% FBS, 1% NEAA, penicillin (100 U/mL) and streptomycin (100 μg/mL) in an atmosphere of 5% CO2 and 90% relative humidity at 37 °C. All cells used in this study were between passages 35 and 45 [16].
Caco-2 cells were seeded at a density of about 8 × 10^4 cells/cm^2 on a 12 wells Millicell hanging insert and left to grow for 19–21 days to reach confluence. Culture medium was replaced every other day for 14 days and daily thereafter. The integrity and transport ability of the Caco-2 cells monolayer were examined by measuring the trans-epithelial electrical resistance (TEER) with a Millicell voltammeter (Millicell ERS-2, Merck Millipore, Billerica, MA, USA) and running standard assays using Lucifer yellow CH as paracellular flux marker. […] Differentiation of Caco-2 cells was checked after 4 and 12 days by determining the activity of alkaline phosphatase with an assay kit (Nanjing Jiancheng Bioengineering Institute, Nanjing, China) and after 21 days transmission electron microscopy was performed on Caco-2 monolayer to evaluate differentiation.
The Caco-2 cell monolayer was washed with D-Hank’s buffer (pH 7.4). Then, the flavonoid (40 μM) was added to either the apical (AP, 0.4 mL) or basolateral (BL, 1.95 mL) side, while the receiving chamber contained the corresponding volume of D-Hank’s buffer and incubated for 1 h at 37 °C. Solutions from both AP and BL sides of Caco-2 cell monolayer were collected and immediately frozen, lyophilized and preserved at −80 °C for high performance liquid chromatography (HPLC) analysis. Papp was calculated from Equation (1), where ΔQ/Δt is the rate of the flavonoid on the accepting chamber (μM/s), A is the surface area of the hanging insert (cm^2) and C0 is the initial concentration of tested flavonoid in donating chamber (μM/mL).(1) Papp=ΔQ/Δt/AC0

[3] = Cell viability (MTT) assay of flavonoids in Caco-2 cells; format: cell-based; settings: human
Protocol: The cytotoxicity of flavonoids and colchicine was evaluated by MTT assay. The cells were grown in 96-well plates at a density of 1 × 10^4 cells/well. After incubation with 40 μM flavonoid for 24 h, the cells were further incubated with an MTT solution (0.5 mg/mL) for 4 h at 37 °C. Finally, after removal of the supernatant, 150 μL dimethyl sulphoxide was added to each well to dissolve crystallized MTT. Absorbance was read at 570 nm with a multiskan spectrum microplate reader (Thermo Labsystems, Waltham, MA, USA). The percentage cell viability relative to that of the control cells was used as the cytotoxicity measure.

[4] = Recovery (mass balance) of flavonoids during Caco-2 transport assay; format: in vitro ADME; settings: human, Caco-2, mass balance, both sides of insert plus cells
Protocol: The recovery of the flavonoid glycosides during the transport assays was determined by mass balance and was measured as total amount of the flavonoids on both sides of the insert and in the Caco-2 cells.

[5] = Caco-2, pH 7.4, as stated in text, direction not specified (bilateral)
[6] = transport apical to basolateral, read-out: Recovery (A to B, %)
[7] = transport basolateral to apical, read-out: Recovery (B to A, %)

Row | Ratioc (ratio of CA B to A to CA A to B) (Caco-2 cell monolayer) | CA A to B (Caco-2 cell monolayer) | CA B to A (Caco-2 cell monolayer) | Relative concentration of flavonoids, D-Hank's/methanol (%) [1] | Papp A→B at 60 min, 40 μM [2] | Papp B→A at 60 min, 40 μM [2] | Papp at 1 h, 40 μM [2, 5] | efflux ratio at 60 min, 40 μM [2] | recovery [4, 6] | recovery [4, 7] | CA (Caco-2 cell monolayer) | Papp at 1 h, 40 μM ([2]; pH 7.4, direction not specified (bilateral)) | SMILES | viability at 24 h, 40 μM [3]
1 | 1.27 | 1.293 ± 0.086 µmol/g | 1.644 ± 0.300 µmol/g | 115.83% | 23.5 ± 0.85 ×10⁻⁶ cm/s | 27.9 ± 2.76 ×10⁻⁶ cm/s | > 20 ×10⁻⁶ cm/s | 1.19 |  |  |  |  | COc1ccc([C@@H]2CC(=O)c3c(O)cc(O)cc3O2)cc1O [Compound 18, Hesperetin] | 100 ± 2.7%
2 | 0.90 | 2.706 ± 0.174 µmol/g | 2.423 ± 0.543 µmol/g | 12.09% | 21.9 ± 0.585 ×10⁻⁶ cm/s | 23.9 ± 0.45 ×10⁻⁶ cm/s |  | 1.1 |  |  |  |  | COc1ccc(-c2cc(=O)c3c(OC)c(OC)c(OC)c(OC)c3o2)cc1 [Compound 2, Tangertin] | 97.5 ± 3.53%
3 |  | 1.038 ± 0.212 µmol/g | 1.586 ± 0.045 µmol/g |  | 16.4 ± 1.2 ×10⁻⁶ cm/s | 18.1 ± 1.62 ×10⁻⁶ cm/s |  |  |  |  |  |  | COc1c(O)cc(O)c2c(=O)cc(-c3ccccc3)oc12 [Compound 3, Wogonin] | 97.7 ± 8.39%
4 |  | 0.058 ± 0.013 µmol/g | 0.068 ± 0.011 µmol/g |  | 3.73 ± 0.73 ×10⁻⁶ cm/s | 5.09 ± 1.55 ×10⁻⁶ cm/s | < 6 ×10⁻⁶ cm/s |  | 93.2 ± 7.62% | 82.9 ± 11% |  |  | C[C@@H]1O[C@@H](O[C@H]2[C@H](Oc3cc(O)c4c(c3)O[C@H](c3ccc(O)cc3)CC4=O)O[C@H](CO)[C@@H](O)[C@@H]2O)[C@H](O)[C@H](O)[C@H]1O [Compound 20, Naringin] | 99.1 ± 4.92%
5 |  | 3.819 ± 1.320 µmol/g | 4.842 ± 0.424 µmol/g |  | 17.4 ± 1.78 ×10⁻⁶ cm/s | 18.3 ± 1.83 ×10⁻⁶ cm/s | > 10 ×10⁻⁶ cm/s |  |  |  |  |  | COc1ccc(-c2coc3cc(O)ccc3c2=O)cc1 [Compound 23, Formononetin] | 94.6 ± 3.6%
6 |  | 4.393 ± 0.790 µmol/g | 8.804 ± 1.576 ^a μmol/g |  | 13.8 ± 0.73 ×10⁻⁶ cm/s | 20 ± 1.29 ×10⁻⁶ cm/s |  |  |  |  |  |  | O=C(/C=C/c1ccc(O)cc1)c1ccc(O)cc1O [Compound 29, Isoliquiritigenin] | 99.2 ± 7.94%
7 |  |  |  | 52.10% | 2.55 ± 1.45 ×10⁻⁶ cm/s | 4.68 ± 0.41 ×10⁻⁶ cm/s |  | 1.84 |  |  |  |  | O=c1c(O)c(-c2ccc(O)c(O)c2)oc2cc(O)cc(O)c12 [Compound 10, Quercetin] | 102 ± 5.19%
8 |  | 2.746 ± 0.478 ^b μmol/g | 0.496 ± 0.249 µmol/g |  | 0.35 ± 0.06 ×10⁻⁶ cm/s | 0.23 ± 0.03 ×10⁻⁶ cm/s |  |  |  |  |  |  | COc1ccc(-c2oc3cc(O)cc(O)c3c(=O)c2O)cc1 [Compound 13, Kaempferide] | 102 ± 6.15%
9 |  | 1.415 ± 0.276 µmol/g | 2.777 ± 0.220 ^b μmol/g |  | 31.1 ± 2.13 ×10⁻⁶ cm/s | 30.5 ± 2.13 ×10⁻⁶ cm/s |  |  |  |  | < 5 µmol/g | > 30 ×10⁻⁶ cm/s | O=c1c(-c2ccc(O)cc2)coc2cc(O)cc(O)c12 [Compound 27, Genistein] | 103 ± 3.37%
10 |  |  |  |  | 6.32 ± 1.16 ×10⁻⁶ cm/s | 26.1 ± 2.08 ×10⁻⁶ cm/s | > 20 ×10⁻⁶ cm/s |  |  |  | not detected |  | O=C1c2c(O)cc(O)cc2OC(c2ccc(O)c(O)c2)C1O (centres unmarked) [Compound 22, Taxifolin] | 99.5 ± 2%
11 |  | 0.129 ± 0.008 ^b μmol/g | 0.060 ± 0.011 µmol/g |  | 8.23 ± 0.87 ×10⁻⁶ cm/s | 21.6 ± 0.32 ×10⁻⁶ cm/s |  |  | 81.5 ± 6.7% | 90.1 ± 1.39% |  |  | O=c1c(O)c(-c2ccc(O)cc2O)oc2cc(O)cc(O)c12 [Compound 11, Morin] | 102 ± 3.62%
12 |  | 3.780 ± 0.711 µmol/g | 9.286 ± 0.859 ^b μmol/g |  | 1.94 ± 0.41 ×10⁻⁶ cm/s | 1.75 ± 0.44 ×10⁻⁶ cm/s |  |  |  |  |  |  | O=c1c(O)c(-c2ccccc2)oc2cc(O)cc(O)c12 [Compound 9, Galangin] | 106 ± 7.79%
13 |  | 8.368 ± 1.039 µmol/g | 11.887 ± 1.247 ^a μmol/g |  | 6.68 ± 0.93 ×10⁻⁶ cm/s | 5.92 ± 0.45 ×10⁻⁶ cm/s |  |  |  |  | > 6 µmol/g |  | O=c1c(O)c(-c2ccc(O)cc2)oc2cc(O)cc(O)c12 [Compound 12, Kaempferol] | 100 ± 4.53%
14 |  | 6.766 ± 1.583 µmol/g | 14.087 ± 1.287 ^b μmol/g |  | 11.1 ± 0.51 ×10⁻⁶ cm/s | 10.7 ± 2.98 ×10⁻⁶ cm/s | > 10 ×10⁻⁶ cm/s |  |  |  | > 6 µmol/g |  | COc1ccc(-c2coc3cc(O)cc(O)c3c2=O)cc1 [Compound 28, Biochanin A] | 106 ± 6.44%
15 |  | 0.024 ± 0.002 µmol/g | 0.044 ± 0.007 µmol/g |  | 3.28 ± 0.32 ×10⁻⁶ cm/s | 2.81 ± 0.24 ×10⁻⁶ cm/s | < 6 ×10⁻⁶ cm/s |  | 72.3 ± 18.8% | 61.8 ± 0.72% | < 0.26 µmol/g |  | O=c1cc(-c2ccc(O)cc2)oc2c([C@@H]3OC[C@H](O)[C@H](O)[C@H]3O)c(O)c([C@@H]3O[C@H](CO)[C@@H](O)[C@H](O)[C@H]3O)c(O)c12 [Compound 8, Schaftoside] | 103 ± 4.77%
16 |  | 1.821 ± 0.774 ^a μmol/g | 0.158 ± 0.021 µmol/g |  | 12.4 ± 0.91 ×10⁻⁶ cm/s | 6.23 ± 0.46 ×10⁻⁶ cm/s | > 10 ×10⁻⁶ cm/s |  |  |  |  |  | COc1cc2c(=O)c(-c3ccc(O)cc3)coc2cc1O [Compound 25, Glycitein] | 98.3 ± 4.6%
17 |  | 0.096 ± 0.010 µmol/g | 0.251 ± 0.012 µmol/g |  | 4.25 ± 0.53 ×10⁻⁶ cm/s | 5.08 ± 1.08 ×10⁻⁶ cm/s | < 6 ×10⁻⁶ cm/s |  | 78.7 ± 1.3% | 79.5 ± 1.24% |  |  | COc1ccc(CCC(=O)c2c(O)cc(O[C@@H]3O[C@H](CO)[C@@H](O)[C@H](O)[C@H]3O[C@@H]3O[C@@H](C)[C@H](O)[C@@H](O)[C@H]3O)cc2O)cc1O [Compound 30, Neohesperidin dihydrochalcone] | 102 ± 6.35%

Row | SMILES | Ratioc (ratio of CA B to A to CA A to B) (Caco-2 cell monolayer) | CA A to B (Caco-2 cell monolayer) | CA B to A (Caco-2 cell monolayer) | Relative concentration of flavonoids, D-Hank's/methanol (%) [1] | Papp A→B at 60 min, 40 μM [2] | Papp B→A at 60 min, 40 μM [2] | Papp at 1 h, 40 μM [2, 5] | efflux ratio at 60 min, 40 μM [2] | recovery [4, 6] | recovery [4, 7] | CA (Caco-2 cell monolayer) | Papp at 1 h, 40 μM ([2]; pH 7.4, direction not specified (bilateral)) | viability at 24 h, 40 μM [3]
18 | O=c1c(-c2ccc(O)cc2)coc2cc(O)ccc12 [Compound 26, Daidzein] |  | 0.500 ± 0.104 µmol/g | 1.236 ± 0.117 ^b μmol/g |  | 33.9 ± 3.55 ×10⁻⁶ cm/s | 42.2 ± 3.11 ×10⁻⁶ cm/s | > 30 ×10⁻⁶ cm/s |  |  |  |  |  | 105 ± 4.56%
19 | O=c1cc(-c2ccccc2)oc2cc(O)c(O)c(O)c12 [Compound 4, Baicalein] |  | 1.182 ± 0.341 µmol/g | 3.272 ± 0.445 ^a μmol/g |  | 1.95 ± 0.53 ×10⁻⁶ cm/s | 0.71 ± 0.21 ×10⁻⁶ cm/s | < 2 ×10⁻⁶ cm/s |  |  |  |  |  | 96.7 ± 6.31%
20 | COc1cc(-c2oc3cc(O)cc(O)c3c(=O)c2O)ccc1O [Compound 15, Isorhamnetin] |  | 0.332 ± 0.066 ^a μmol/g | 0.076 ± 0.048 µmol/g |  | 1.09 ± 0.02 ×10⁻⁶ cm/s | 0.9 ± 0.42 ×10⁻⁶ cm/s |  |  |  |  |  |  | 93.6 ± 1.22%
